Results from patent publication EP0551518A1, “QUINOLINECARBOXYLIC ACID DERIVATIVE” (NIPPON SHINYAKU COMPANY, LIMITED, priority 1990, dated 1992).
In brackets after ≈: the same amount, converted by molar mass.

How the values were obtained:
Format in all cases: cell-based
S. aureus OWPH 1799 = assay: Determination of minimal inhibitory concentration (MIC)-2, new quinolone-resistant MRSA; settings: Staphylococcus aureus, OWPH1799, 18 h; S. aureus OWPH 1799, new quinolone-resistant and methicillin-resistant; same procedure as Test Example 1
Experimental: (§1) Method: MIC was determined by the agar plate dilution method in accordance with the standard protocol of Japan Society of Chemotherapy (cf. Chemotherapy 29 (1), 76-79, 1981). Each bacterial culture obtained by 18-hour incubation in a sensitivity assay bouillon medium at 37°C was diluted to 10⁶ CFU/ml with the same medium. Using a microplanter, a sensitivity assay agar medium containing the test drug was inoculated with the diluted culture and incubated at 37°C for 18 hours. The MIC value was then determined. As reference drugs, 6-fluoro-1-methyl-4-oxo-7-(1-piperazinyl)-4H-[1,3]thiazeto[3,2-a]quinoline-3-carboxylic acid (referred to as control), ciprofloxacin (CPFX) and ofloxacin (OFLX) were used.
(§2) The antibacterial activity of the compounds obtained in Example 4, Example 25 and Example 26 of the present invention was assayed by the same procedure as in Test Example 1. As reference drugs, 6-fluoro-1-methyl-4-oxo-7-(1-piperazinyl)-4H-[1,3]-thiazeto[3,2-a]quinoline-3-carboxylic acid (referred to as Control), norfloxacin (NFLX) and tosufloxacin (TFLX) were used.

S. aureus Sh 44 = assay: as above; settings: Staphylococcus aureus, SH44, 18 h; S. aureus Sh 44, new quinolone-resistant and methicillin-resistant; same procedure as Test Example 1
Experimental: as §1, §2

S. aureus OWPH 2133 = assay: as above; settings: Staphylococcus aureus, OWPH2133, 18 h; S. aureus OWPH 2133, new quinolone-resistant and methicillin-resistant; same procedure as Test Example 1
Experimental: as §1, §2

S. aureus OWPH 1793 = assay: as above; settings: Staphylococcus aureus, OWPH1793, 18 h; S. aureus OWPH 1793, new quinolone-resistant and methicillin-resistant; same procedure as Test Example 1
Experimental: as §1, §2

S. aureus OWPH 1792 = assay: as above; settings: Staphylococcus aureus, OWPH1792, 18 h; S. aureus OWPH 1792, new quinolone-resistant and methicillin-resistant; same procedure as Test Example 1
Experimental: as §1, §2

S. aureus OWPH 2134 = assay: as above; settings: Staphylococcus aureus, OWPH2134, 18 h; S. aureus OWPH 2134, new quinolone-resistant and methicillin-resistant; same procedure as Test Example 1
Experimental: as §1, §2

S. aureus OWPH 1770 = assay: as above; settings: Staphylococcus aureus, OWPH1770, 18 h; S. aureus OWPH 1770, new quinolone-resistant and methicillin-resistant; same procedure as Test Example 1
Experimental: as §1, §2

S. aureus OWPH 2128 = assay: as above; settings: Staphylococcus aureus, OWPH2128, 18 h; S. aureus OWPH 2128, new quinolone-resistant and methicillin-resistant; same procedure as Test Example 1
Experimental: as §1, §2

S. aureus Sh 2 = assay: as above; settings: Staphylococcus aureus, SH2, 18 h; S. aureus Sh 2, new quinolone-resistant and methicillin-resistant; same procedure as Test Example 1
Experimental: as §1, §2

S. aureus Sh 54 = assay: as above; settings: Staphylococcus aureus, SH54, 18 h; S. aureus Sh 54, new quinolone-resistant and methicillin-resistant; same procedure as Test Example 1
Experimental: as §1, §2

S. aureus OWPH 2124 = assay: as above; settings: Staphylococcus aureus, OWPH2124, 18 h; S. aureus OWPH 2124, new quinolone-resistant and methicillin-resistant; same procedure as Test Example 1
Experimental: as §1, §2

S. aureus OWPH 1773 = assay: as above; settings: Staphylococcus aureus, OWPH1773, 18 h; S. aureus OWPH 1773, new quinolone-resistant and methicillin-resistant; same procedure as Test Example 1
Experimental: as §1, §2

S. aureus Sh 47 = assay: as above; settings: Staphylococcus aureus, SH47, 18 h; S. aureus Sh 47, new quinolone-resistant and methicillin-resistant; same procedure as Test Example 1
Experimental: as §1, §2

S. aureus Sh 8 = assay: as above; settings: Staphylococcus aureus, SH8, 18 h; S. aureus Sh 8, new quinolone-resistant and methicillin-resistant; same procedure as Test Example 1
Experimental: as §1, §2

S. aureus OWPH 1796 = assay: as above; settings: Staphylococcus aureus, OWPH1796, 18 h; S. aureus OWPH 1796, new quinolone-resistant and methicillin-resistant; same procedure as Test Example 1
Experimental: as §1, §2

S. aureus OWPH 2127 = assay: as above; settings: Staphylococcus aureus, OWPH2127, 18 h; S. aureus OWPH 2127, new quinolone-resistant and methicillin-resistant; same procedure as Test Example 1
Experimental: as §1, §2

S. aureus OWPH 1786 = assay: as above; settings: Staphylococcus aureus, OWPH1786, 18 h; S. aureus OWPH 1786, new quinolone-resistant and methicillin-resistant; same procedure as Test Example 1
Experimental: as §1, §2

[1] = system: Micrococcus luteus ATCC 9341; assay: Determination of minimal inhibitory concentration of growth (MIC)-1, agar plate dilution method; settings: ATCC9341; Micrococcus luteus ATCC 9341; agar plate dilution, 10⁶ CFU/ml, 37°C, 18 hours; read-out: MIC
Experimental: as §1

[2] = system: Staphylococcus aureus OWPH 1984 (MRSA); assay: as above; settings: Staphylococcus aureus, MRSA, 18 h, Staphylococcus aureus OWPH 1984 (MRSA); agar plate dilution, 10⁶ CFU/ml, 37°C, 18 hours; read-out: MIC
Experimental: as §1

[3] = system: Staphylococcus aureus Smith; assay: as above; settings: Staphylococcus aureus Smith; agar plate dilution, 10⁶ CFU/ml, 37°C, 18 hours; read-out: MIC
Experimental: as §1

[4] = system: Staphylococcus aureus OWPH 2125 (MRSA, PCA^r ); assay: as above; settings: Staphylococcus aureus, MRSA, 18 h, Staphylococcus aureus OWPH 2125 (MRSA, PCA^r); agar plate dilution, 10⁶ CFU/ml, 37°C, 18 hours; read-out: MIC
Experimental: as §1

[5] = system: Pseudomonas aeruginosa IFO 3445; assay: as above; settings: Pseudomonas aeruginosa, IFO3445, 18 h, Pseudomonas aeruginosa IFO 3445; agar plate dilution, 10⁶ CFU/ml, 37°C, 18 hours; read-out: MIC
Experimental: as §1

[6] = system: Staphylococcus aureus 209-P JC-1; assay: as above; settings: Staphylococcus aureus, 209P, 18 h, Staphylococcus aureus 209-P JC-1; agar plate dilution, 10⁶ CFU/ml, 37°C, 18 hours; read-out: MIC
Experimental: as §1

[7] = system: Staphylococcus epider-midis IFO 12993; assay: as above; settings: Staphylococcus, IFO12993, 18 h, Staphylococcus epider-midis IFO 12993; agar plate dilution, 10⁶ CFU/ml, 37°C, 18 hours; read-out: MIC
Experimental: as §1

Proteus vulgaris HX-19 = assay: as above; settings: Proteus vulgaris, HX19, 18 h, Proteus vulgaris HX-19; agar plate dilution, 10⁶ CFU/ml, 37°C, 18 hours; read-out: MIC
Experimental: as §1

Escherichia coli KC-14 = assay: as above; settings: Escherichia coli, KC14, 18 h, 10⁶ CFU/ml, 37°C, read-out: MIC
Experimental: as §1

[8] = system: Enterococcus faecalis ATCC 29212; assay: as above; settings: ATCC29212; Enterococcus faecalis ATCC 29212; agar plate dilution, 10⁶ CFU/ml, 37°C, 18 hours; read-out: MIC
Experimental: as §1

[9] = system: Bacillus subtilis ATCC 6633; assay: as above; settings: ATCC6633; Bacillus subtilis ATCC 6633; agar plate dilution, 10⁶ CFU/ml, 37°C, 18 hours; read-out: MIC
Experimental: as §1

| SMILES | MIC (S. aureus OWPH 1799) [mg/L] | MIC (S. aureus Sh 44) [mg/L] | MIC (S. aureus OWPH 2133) [mg/L] | MIC (S. aureus OWPH 1793) [mg/L] | MIC (S. aureus OWPH 1792) [mg/L] | MIC (S. aureus OWPH 2134) [mg/L] | MIC (S. aureus OWPH 1770) [mg/L] | MIC (S. aureus OWPH 2128) [mg/L] | MIC (S. aureus Sh 2) [mg/L] | MIC (S. aureus Sh 54) [mg/L] | MIC (S. aureus OWPH 2124) [mg/L] | MIC (S. aureus OWPH 1773) [mg/L] | MIC (S. aureus Sh 47) [mg/L] | MIC (S. aureus Sh 8) [mg/L] | MIC (S. aureus OWPH 1796) [mg/L] | MIC (S. aureus OWPH 2127) [mg/L] | MIC (S. aureus OWPH 1786) [mg/L] | MIC [1] [mg/L] | MIC [2] [mg/L] | MIC [3] [mg/L] | other results |
| --- | --- | --- | --- | --- | --- | --- | --- | --- | --- | --- | --- | --- | --- | --- | --- | --- | --- | --- | --- | --- | --- |
| CC1Sc2c(C(=O)O)c(=O)c3cc(F)c(-c4ccc(N)cc4)c(F)c3n21 (centres unmarked) [Example 25, 7-(4-Aminophenyl)-6,8-difluoro-1-methyl-4-oxo-4H-[1,3]thiazeto[3,2-a]quinoline-3-carboxylic acid] | 0.39 (≈ 1.04 µM) | 0.2 (≈ 0.534 µM) | 0.39 (≈ 1.04 µM) | 0.39 (≈ 1.04 µM) | 0.39 (≈ 1.04 µM) | 0.2 (≈ 0.534 µM) | 0.1 (≈ 0.267 µM) | 0.39 (≈ 1.04 µM) | 0.39 (≈ 1.04 µM) | 0.2 (≈ 0.534 µM) | 0.39 (≈ 1.04 µM) | 0.2 (≈ 0.534 µM) | 0.39 (≈ 1.04 µM) | 0.2 (≈ 0.534 µM) | 0.2 (≈ 0.534 µM) | 0.39 (≈ 1.04 µM) | 0.39 (≈ 1.04 µM) | 0.2 (≈ 0.534 µM) | 0.012 (≈ 0.0321 µM) | ≤ 0.006 | MIC [4]: 0.012 mg/L (≈ 0.0321 µM); MIC [5]: 0.2 mg/L (≈ 0.534 µM); MIC [6]: ≤ 0.006 mg/L; MIC [7]: 0.006 mg/L (≈ 0.016 µM); MIC (Proteus vulgaris HX-19): 0.025 mg/L (≈ 0.0668 µM); MIC (Escherichia coli KC-14): 0.05 mg/L (≈ 0.134 µM); MIC [8]: 0.05 mg/L (≈ 0.134 µM); MIC [9]: ≤ 0.006 mg/L |
| COc1c(-c2ccccc2)c(F)cc2c(=O)c(C(=O)O)c3n(c12)C(C)S3 (centres unmarked) [Example 26, 6-Fluoro-8-methoxy-1-methyl-4-oxo-7-phenyl-4H-[1,3]thiazeto[3,2-a]quinoline-3-carboxylic acid] | 1.56 (≈ 4.2 µM) | 0.78 (≈ 2.1 µM) | 1.56 (≈ 4.2 µM) | 1.56 (≈ 4.2 µM) | 1.56 (≈ 4.2 µM) | 0.78 (≈ 2.1 µM) | 0.39 (≈ 1.05 µM) | 1.56 (≈ 4.2 µM) | 1.56 (≈ 4.2 µM) | 0.78 (≈ 2.1 µM) | 0.39 (≈ 1.05 µM) | 0.39 (≈ 1.05 µM) | 0.78 (≈ 2.1 µM) | 0.78 (≈ 2.1 µM) | 0.78 (≈ 2.1 µM) | 1.56 (≈ 4.2 µM) | 0.78 (≈ 2.1 µM) | 0.78 (≈ 2.1 µM) | 0.025 (≈ 0.0673 µM) | 0.012 (≈ 0.0323 µM) | MIC [4]: 0.1 mg/L (≈ 0.269 µM); MIC [5]: 3.13 mg/L (≈ 8.43 µM); MIC [6]: 0.025 mg/L (≈ 0.0673 µM); MIC [7]: 0.025 mg/L (≈ 0.0673 µM); MIC (Proteus vulgaris HX-19): 0.39 mg/L (≈ 1.05 µM); MIC (Escherichia coli KC-14): 0.78 mg/L (≈ 2.1 µM); MIC [8]: 0.2 mg/L (≈ 0.539 µM); MIC [9]: ≤ 0.006 mg/L |
